Like-named read-outs stand apart in the source and are kept apart here.
Columns and labels:
[1] = target: T1, CDK7 (Homo sapiens, UniProt P50613); assay: Adapta kinase assay (Life Technologies), CDK7; format: biochemical
T1 construct: purchased Life Technologies (assay service)

[2] = tested on: Jurkat cells; assay: Cell proliferation (CellTiter-Glo, 72 hour), Jurkat; format: cell-based; conditions: Homo sapiens, blood cancer cell line
[3] = tested on: HL60; assay: Cell proliferation (CellTiter-Glo, 72 hour), HL60; format: cell-based; conditions: Homo sapiens, HL-60, blood cancer cell line, read-out: HL60 inhibition of proliferation (IC50)
[4] = tested on: THP-1; assay: Cell proliferation (CellTiter-Glo, 72 hour), THP-1; format: cell-based; conditions: Homo sapiens, blood cancer cell line, read-out: THP-1 inhibition of proliferation (IC50)
[5] = tested on: MV4-11; assay: Cell proliferation (CellTiter-Glo, 72 hour), MV4-11; format: cell-based; conditions: Homo sapiens, blood cancer cell line, read-out: MV4-11 inhibition of proliferation (IC50)
[6] = tested on: RS4-11; assay: Cell proliferation (CellTiter-Glo, 72 hour), RS4-11; format: cell-based; conditions: Homo sapiens, blood cancer cell line, read-out: RS4-11 inhibition of proliferation (IC50)
[7] = tested on: hTERT-HME1; assay: Cell proliferation (CellTiter-Glo, 72 hour), hTERT-HME1; format: cell-based; conditions: breast cancer cell lines table, read-out: hTERT-HME1 inhibition of proliferation (IC50)
[8] = tested on: MDA-MB231; assay: Cell proliferation (CellTiter-Glo, 72 hour), MDA-MB231; format: cell-based; conditions: Homo sapiens, MDA-MB-231, breast cancer cell line, read-out: MDA-MB231 inhibition of proliferation (IC50)
[9] = tested on: MCF7; assay: Cell proliferation (CellTiter-Glo, 72 hour), MCF7; format: cell-based; conditions: Homo sapiens, breast cancer cell line, read-out: MCF7 inhibition of proliferation (IC50)
[10] = tested on: MCF10A; assay: Cell proliferation (CellTiter-Glo, 72 hour), MCF10A; format: cell-based; conditions: Homo sapiens, MCF-10A, breast cancer cell lines table, read-out: MCF10A inhibition of proliferation (IC50)
[11] = tested on: T47D; assay: Cell proliferation (CellTiter-Glo, 72 hour), T47D; format: cell-based; conditions: Homo sapiens, breast cancer cell line, read-out: T47D inhibition of proliferation (IC50)
[12] = tested on: SKBR3; assay: Cell proliferation (CellTiter-Glo, 72 hour), SKBR3; format: cell-based; conditions: Homo sapiens, SK-BR-3, breast cancer cell line, read-out: SKBR3 inhibition of proliferation (IC50)
[13] = tested on: A673; assay: Cell proliferation (CellTiter-Glo, 72 hour), A673; format: cell-based; conditions: Homo sapiens, Ewing's sarcoma cell line, read-out: A673 inhibition of proliferation (IC50)
[14] = tested on: Hs822T; assay: Cell proliferation (CellTiter-Glo, 72 hour), Hs822T; format: cell-based; conditions: Ewing's sarcoma cell line, read-out: Hs822T inhibition of proliferation (IC50)
[15] = tested on: Hs863T; assay: Cell proliferation (CellTiter-Glo, 72 hour), Hs863T; format: cell-based; conditions: Ewing's sarcoma cell line, read-out: Hs863T inhibition of proliferation (IC50)
[16] = tested on: RD-ES; assay: Cell proliferation (CellTiter-Glo, 72 hour), RD-ES; format: cell-based; conditions: Ewing's sarcoma cell line, read-out: RD-ES inhibition of proliferation (IC50)
[17] = tested on: SK-ES-1; assay: Cell proliferation (CellTiter-Glo, 72 hour), SK-ES-1; format: cell-based; conditions: Homo sapiens, SK-ES1, Ewing's sarcoma cell line, read-out: SK-ES-1 inhibition of proliferation (IC50)
[18] = tested on: SAOS; assay: Cell proliferation (CellTiter-Glo, 72 hour), SAOS; format: cell-based; conditions: osteosarcoma cell line, read-out: SAOS inhibition of proliferation (IC50)
[19] = tested on: MNNG-HOS Cl #5; assay: Cell proliferation (CellTiter-Glo, 72 hour), MNNG-HOS Cl #5; format: cell-based; conditions: osteosarcoma cell line, read-out: MNNG-HOS Cl#5 inhibition of proliferation (IC50)
[20] = tested on: 143B; assay: Cell proliferation (CellTiter-Glo, 72 hour), 143B; format: cell-based; conditions: Homo sapiens, osteosarcoma cell line, read-out: 143B inhibition of proliferation (IC50)
[21] = target: T2, MLK3 (Homo sapiens, UniProt Q16584); assay: LanthaScreen Eu kinase assay (Life Technologies), MLK3; format: binding; conditions: Table 2; read-out: MLK3 (calculated IC50)
T2 construct: purchased Life Technologies (assay service)

[22] = target: CDK5/p25 (Homo sapiens, UniProt Q00535); assay: Z'-Lyte kinase assay (Life Technologies), CDK5/p25
Description: Compounds of the invention were assayed for activity against a variety of different kinases at Life Technologies™ (Grand Island, N.Y.) using their commercially available Adapta® (for CDK7, CDK9/cyclin T1, and IRAK1 kinases), Z′-Lyte® (for CDK1, CDK2, CDK5/p25, CDK5/p35, JNK1 and JNK2 kinases), and LanthaScreen Eu® (for CDK8, CDK9/cyclin K and MLK3) kinase assay services. Test compounds were tested at 100 nM and 1 μM final concentrations in 1% DMSO against all kinases except CDK7. For CDK7, test compounds were tested at concentrations ranging from 10 μM to 0.514 nM in a series of 3-fold serial dilutions. […] The co-factors used for each kinase in the assays were as follows: CDK1: cyclin B; CDK2: cyclin A; CDK5: p25 or p35 as indicated; CDK7: cyclin H and MNAT1; CDK8: cyclin C; CDK9: cyclin K or cyclin T1 as indicated; IRAK1: Histone H3 (1-20) peptide; JNK1: none required; JNK2: none required; MLK3: none required.

[23] = Table 1C, co-factors cyclin H and MNAT1, read-out: CDK7 IC50
[24] = Table 2, co-factors cyclin H and MNAT1, read-out: CDK7 (calculated IC50)

T1 sequence (P50613 whole entry): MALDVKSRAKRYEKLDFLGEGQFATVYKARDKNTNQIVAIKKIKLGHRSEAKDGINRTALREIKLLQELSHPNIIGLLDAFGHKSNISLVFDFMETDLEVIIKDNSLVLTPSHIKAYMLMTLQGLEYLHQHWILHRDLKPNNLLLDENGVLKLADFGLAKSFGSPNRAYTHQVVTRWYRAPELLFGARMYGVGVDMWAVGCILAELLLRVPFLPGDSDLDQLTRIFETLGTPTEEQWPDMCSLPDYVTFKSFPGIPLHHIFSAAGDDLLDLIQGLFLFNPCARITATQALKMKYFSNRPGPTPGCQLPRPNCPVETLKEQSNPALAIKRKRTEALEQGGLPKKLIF
T1 sequence (P51946 whole entry partner): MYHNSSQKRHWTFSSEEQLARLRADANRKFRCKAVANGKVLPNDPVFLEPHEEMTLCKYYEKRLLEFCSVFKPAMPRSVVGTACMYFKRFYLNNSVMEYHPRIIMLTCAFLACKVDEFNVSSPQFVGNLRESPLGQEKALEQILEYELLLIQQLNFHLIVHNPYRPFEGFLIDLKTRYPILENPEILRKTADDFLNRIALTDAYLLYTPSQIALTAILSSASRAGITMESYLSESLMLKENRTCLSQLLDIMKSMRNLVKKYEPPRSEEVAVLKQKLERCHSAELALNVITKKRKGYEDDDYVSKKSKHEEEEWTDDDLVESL
T1 sequence (P51948 whole entry partner): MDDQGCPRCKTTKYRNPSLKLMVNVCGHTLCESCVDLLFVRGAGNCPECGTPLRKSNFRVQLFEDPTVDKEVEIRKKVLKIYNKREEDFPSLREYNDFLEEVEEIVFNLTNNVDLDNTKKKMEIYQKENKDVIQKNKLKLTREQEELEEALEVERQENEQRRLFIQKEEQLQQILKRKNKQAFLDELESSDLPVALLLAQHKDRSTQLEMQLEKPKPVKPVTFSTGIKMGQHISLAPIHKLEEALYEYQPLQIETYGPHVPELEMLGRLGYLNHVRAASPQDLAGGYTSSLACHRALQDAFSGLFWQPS
CDK5/p25, sequence (Q00535 whole entry): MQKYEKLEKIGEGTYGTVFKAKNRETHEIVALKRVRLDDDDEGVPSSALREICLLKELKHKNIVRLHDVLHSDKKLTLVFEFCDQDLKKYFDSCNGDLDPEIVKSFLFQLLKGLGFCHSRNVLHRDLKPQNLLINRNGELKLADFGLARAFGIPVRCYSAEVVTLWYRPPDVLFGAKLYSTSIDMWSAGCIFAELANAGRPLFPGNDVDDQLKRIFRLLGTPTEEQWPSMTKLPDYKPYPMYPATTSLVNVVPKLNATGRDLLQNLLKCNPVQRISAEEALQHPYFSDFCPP
CDK5/p25, sequence (Q15078 99-307 partner limits assumed): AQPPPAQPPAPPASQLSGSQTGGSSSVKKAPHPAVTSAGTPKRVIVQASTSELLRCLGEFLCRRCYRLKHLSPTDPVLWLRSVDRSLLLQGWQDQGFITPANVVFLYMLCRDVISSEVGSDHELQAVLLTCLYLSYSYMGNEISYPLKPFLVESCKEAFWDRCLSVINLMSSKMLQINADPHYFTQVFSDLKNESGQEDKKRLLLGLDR
T2 sequence (Q16584 whole entry): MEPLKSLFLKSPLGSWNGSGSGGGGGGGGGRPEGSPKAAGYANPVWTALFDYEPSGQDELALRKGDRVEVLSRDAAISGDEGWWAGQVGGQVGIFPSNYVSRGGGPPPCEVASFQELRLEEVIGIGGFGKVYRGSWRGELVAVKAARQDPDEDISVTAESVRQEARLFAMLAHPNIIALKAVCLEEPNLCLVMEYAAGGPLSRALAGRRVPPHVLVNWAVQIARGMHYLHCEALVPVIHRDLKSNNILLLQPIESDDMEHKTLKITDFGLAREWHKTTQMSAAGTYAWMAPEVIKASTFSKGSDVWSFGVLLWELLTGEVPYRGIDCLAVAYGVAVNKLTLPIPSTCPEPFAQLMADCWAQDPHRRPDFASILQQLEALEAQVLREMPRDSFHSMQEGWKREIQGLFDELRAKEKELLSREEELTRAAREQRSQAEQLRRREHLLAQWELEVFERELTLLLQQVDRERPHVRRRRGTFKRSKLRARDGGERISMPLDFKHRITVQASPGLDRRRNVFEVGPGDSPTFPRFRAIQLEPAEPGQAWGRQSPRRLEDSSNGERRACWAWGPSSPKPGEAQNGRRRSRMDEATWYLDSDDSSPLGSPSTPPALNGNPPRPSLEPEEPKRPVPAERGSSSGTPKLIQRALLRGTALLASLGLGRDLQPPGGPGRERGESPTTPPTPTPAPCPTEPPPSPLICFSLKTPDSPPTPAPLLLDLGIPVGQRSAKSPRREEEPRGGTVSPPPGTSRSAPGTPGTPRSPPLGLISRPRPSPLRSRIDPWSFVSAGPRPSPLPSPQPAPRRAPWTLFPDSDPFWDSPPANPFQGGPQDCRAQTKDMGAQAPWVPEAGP

CN(C)C/C=C/C(=O)Nc1ccc(CN[C@H]2CCC[C@@H](Nc3ncc(Cl)c(-c4c[nH]c5ccccc45)n3)C2)cc1 [Compound 129, (E)-N-(4-(((1S,3R)-3-(5-chloro-4-(1H-indol-3-yl)pyrimidin-2-ylamino)cyclohexylamino)methyl)phenyl)-4-(dimethylamino)but-2-enamide]
IC50 [1, 23]: < 100 nM | IC50 [2]: < 500 nM

C[Si](C)(C)C#CC(=O)Nc1ccc(C(=O)NC23CCCC(Nc4ncc(Cl)c(-c5c[nH]c6ccccc56)n4)(C2)C3)cc1 [Compound 130, N-(5-(5-chloro-4-(1H-indol-3-yl)pyrimidin-2-ylamino)bicyclo[3.1.1]heptan-1-yl)-4-(3-(trimethylsilyl)propiolamido)benzamide]
IC50 [1, 23]: < 100 nM | IC50 [2]: < 500 nM

CN(C/C=C/C(=O)Nc1ccc(C(=O)N[C@H]2CCC[C@@H](Nc3ncc(Cl)c(-c4c[nH]c5ccccc45)n3)C2)cc1)CC(=O)O [Compound 131, 2-(((E)-4-(4-((1S,3R)-3-(5-chloro-4-(1H-indol-3-yl)pyrimidin-2-ylamino)cyclohexylcarbamoyl)phenylamino)-4-oxobut-2-enyl)(methyl)amino)acetic acid]
IC50 [1, 23]: < 100 nM | IC50 [2]: < 500 nM

C=CC(=O)Nc1ccc(C(=O)N[C@H]2CCC[C@@H](Nc3ncc(Cl)c(-c4c[nH]c5ccccc45)n3)C2)c(N2CCOCC2)c1 [Compound 133, 4-acrylamido-N-((1S,3R)-3-(5-chloro-4-(1H-indol-3-yl)pyrimidin-2-ylamino)cyclohexyl)-2-morpholinobenzamide]
IC50 [1, 23]: 100 to 1000 nM | IC50 [2]: < 500 nM

C=CC(=O)Nc1cccc(C(=O)N[C@H]2CC[C@H](Nc3ncc(Cl)c(-c4c[nH]c5ccccc45)n3)CC2)c1 [Compound 135, 3-acrylamido-N-((trans)-4-(5-chloro-4-(1H-indol-3-yl)pyrimidin-2-ylamino)cyclohexyl)benzamide]
IC50 [1, 23]: < 100 nM | IC50 [2]: < 500 nM

C=CC(=O)Nc1ccc(C(=O)N[C@H]2CCC[C@@H](Nc3ncc(F)c(-c4c[nH]c5ccccc45)n3)C2)cc1 [Compound 137, 4-acrylamido-N-((1S,3R)-3-(5-fluoro-4-(1H-indol-3-yl)pyrimidin-2-ylamino)cyclohexyl)benzamide]
IC50 [1, 23]: 100 to 1000 nM | IC50 [2]: < 500 nM

C=CC(=O)Nc1ccc(C(=O)N[C@H]2CCC[C@@H](Nc3ncc(Cl)c(-c4cnn5ccccc45)n3)C2)cc1 [Compound 138, 4-acrylamido-N-((1S,3R)-3-(5-chloro-4-(pyrazolo[1,5-a]pyridin-3-yl)pyrimidin-2-ylamino)cyclohexyl)benzamide]
IC50 [1, 23]: < 100 nM | IC50 [2]: < 500 nM

CN(C)C/C=C/C(=O)Nc1ccc(C(=O)N[C@H]2C[C@@H](Nc3ncc(Cl)c(-c4c[nH]c5ccccc45)n3)CC(F)(F)C2)cc1 [Compound 139]
IC50 [1, 23]: > 1000 nM | IC50 [2]: 500 to 5000 nM

Cc1nc(C)c(-c2nc(NC3CCCC(NC(=O)c4ccc(NC(=O)/C=C/CN(C)C)cc4)C3)ncc2Cl)s1 (stereo not shown) [Compound 141]
IC50 [1, 23]: < 100 nM | IC50 [2]: < 500 nM

C=CC(=O)Nc1ccc(C(=O)NC2CCCC(Nc3ncc(Cl)c(-c4sc(C)nc4C)n3)C2)cc1 (stereo not shown) [Compound 142]
IC50 [1, 23]: 100 to 1000 nM | IC50 [2]: < 500 nM

Cc1noc(C)c1-c1nc(N[C@@H]2CCC[C@H](NC(=O)c3ccc(NC(=O)/C=C/CN(C)C)cc3)C2)ncc1Cl [Compound 144]
IC50 [1, 23]: 100 to 1000 nM | IC50 [2]: < 500 nM

C=CC(=O)Nc1ccc(C(=O)N[C@H]2CCC[C@@H](Nc3ncc(Cl)c(-c4c(C)noc4C)n3)C2)cc1 [Compound 145]
IC50 [1, 23]: < 1000 nM | IC50 [2]: < 500 nM

C=CC(=O)Nc1ccc(C(=O)N[C@H]2CCC[C@@H](Nc3ncc(C4CC4)c(-c4c[nH]c5ccccc45)n3)C2)cc1 [Compound 146]
IC50 [1, 23]: 100 to 1000 nM | IC50 [2]: 500 to 5000 nM

C=CC(=O)Nc1ccc(C(=O)N[C@H]2CC[C@@H](Nc3ncc(Cl)c(-c4c[nH]c5ccccc45)n3)CC2)cc1 [Compound 147]
IC50 [1, 23]: < 1000 nM | IC50 [2]: < 500 nM

C=CC(=O)Nc1ccc(C(=O)N[C@H]2CCC[C@@H](Nc3ncc(Cl)c(-c4cn(C)c5ccccc45)n3)C2)cc1 [Compound 152]
IC50 [1, 23]: 100 to 1000 nM | IC50 [2]: < 500 nM

CN1CC[C@H](c2c(O)cc(O)c3c(=O)cc(-c4ccccc4Cl)oc23)[C@H](O)C1 [Flavopiridol, flavopiridol, reference compound]
IC50 [3]: < 500 nM | IC50 [4]: < 500 nM | IC50 [5]: < 500 nM | IC50 [6]: < 500 nM | IC50 [7]: < 500 nM | IC50 [8]: < 500 nM | IC50 [9]: 500 to 5000 nM | IC50 [10]: < 500 nM | IC50 [11]: > 5000 nM | IC50 [12]: < 500 nM | IC50 [13]: < 500 nM | IC50 [14]: > 5000 nM | IC50 [15]: > 5000 nM | IC50 [16]: < 500 nM | IC50 [17]: < 500 nM | IC50 [18]: < 500 nM | IC50 [19]: 500 to 5000 nM | IC50 [20]: 500 to 5000 nM

CC(C)[C@]12O[C@H]1[C@@H]1O[C@]13[C@]1(O[C@H]1C[C@H]1C4=C(CC[C@@]13C)C(=O)OC4)[C@@H]2O [Triptolide, triptolide, reference compound]
IC50 [3]: < 500 nM | IC50 [4]: < 500 nM | IC50 [5]: < 500 nM | IC50 [6]: < 500 nM | IC50 [7]: < 500 nM | IC50 [8]: < 500 nM | IC50 [9]: < 500 nM | IC50 [10]: < 500 nM | IC50 [11]: > 5000 nM | IC50 [12]: < 500 nM | IC50 [13]: < 500 nM | IC50 [14]: 500 to 5000 nM | IC50 [15]: > 5000 nM | IC50 [16]: < 500 nM | IC50 [17]: < 500 nM | IC50 [18]: < 500 nM | IC50 [19]: < 500 nM | IC50 [20]: < 500 nM

CN(C)C/C=C/C(=O)Nc1ccc(C(=O)N[C@@H]2CCC[C@H](Nc3ncc(Cl)c(-c4c[nH]c5ccccc45)n3)C2)cc1 [compound 101]
IC50 [1, 23]: 100 to 1000 nM | IC50 [1, 24]: 100 to 1000 nM | IC50 [21]: > 1000 nM | IC50 [2]: 500 to 5000 nM | IC50 [22]: > 1000 nM

CN(C)C/C=C/C(=O)Nc1ccc(C(=O)N[C@@H]2CCC[C@@H](Nc3ncc(Cl)c(-c4c[nH]c5ccccc45)n3)C2)cc1 [compound 104]
IC50 [1, 23]: < 100 nM | IC50 [1, 24]: < 100 nM | IC50 [21]: > 1000 nM | IC50 [2]: < 500 nM | IC50 [22]: > 1000 nM

CN(C)C/C=C/C(=O)Nc1ccc(C(=O)NC2CCCC(Nc3ncc(Cl)c(-c4c[nH]c5ccccc45)n3)C2)c(F)c1 (stereo not shown) [compound 125]
IC50 [1, 23]: < 100 nM | IC50 [2]: < 500 nM

CN(C)C/C=C/C(=O)Nc1ccc(C(=O)NC2(C)CCCC(Nc3ncc(Cl)c(-c4c[nH]c5ccccc45)n3)C2)cc1 (stereo not shown) [compound 128]
IC50 [1, 23]: < 100 nM | IC50 [2]: < 500 nM

CN(C)C/C=C/C(=O)Nc1cccc(C(=O)NC2CCC(Nc3ncc(Cl)c(-c4c[nH]c5ccccc45)n3)CC2)c1 (stereo not shown) [compound 140]
IC50 [1, 23]: < 100 nM | IC50 [2]: < 500 nM
